According to ChEMBL document CHEMBL1201862, “PubChem BioAssay data set” (2004):
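Dose response: 5 concentrations. Exposure: 48 h. Format: 96-well plates. Endpoint: linear interpolation; highest concentration if not reached. GI50 = concentration required for 50% inhibition of growth.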 The source made the active and inactive calls. Rule as the data show it: active = GI50 up to about 1.1 µM and inactive = higher.

Experiments:
Test in all cases: growth of human tumour cells (NCI), 48 h
SK-OV-3 = tested on: SK-OV-3
UACC-62 = tested on: UACC-62
OVCAR-8 = tested on: OVCAR-8
CCRF-CEM = tested on: CCRF-CEM
HT-29 = tested on: HT-29
KM-20L2 = tested on: KM-20L2
SK-MEL-28 = tested on: SK-MEL-28
UO-31 = tested on: UO-31
Malme-3M = tested on: Malme-3M
HOP-92 = tested on: HOP-92
NCI-H226 = tested on: NCI-H226
ACHN = tested on: ACHN
HOP-62 = tested on: HOP-62
RPMI-8226 = tested on: RPMI-8226
HCC 2998 = tested on: HCC 2998
Hs-578T = tested on: Hs-578T
PC-3 = tested on: PC-3
MCF7 = tested on: MCF7
SR = tested on: SR
NCI/ADR-RES = tested on: NCI/ADR-RES

Measured: GI50

NC(=O)n1ncc(Cl)c(Cl)c1=O
inactive: SK-OV-3 > 100 µM | UACC-62 > 100 µM | OVCAR-8 > 100 µM | CCRF-CEM > 100 µM | HT-29 > 100 µM | KM-20L2 > 100 µM | SK-MEL-28 > 100 µM | UO-31 > 100 µM | Malme-3M > 100 µM | HOP-92 > 100 µM | NCI-H226 > 100 µM | ACHN > 100 µM | HOP-62 > 100 µM

N#Cc1cccc(N2C(=O)c3c(c(-c4ccccc4)c(-c4ccc(Sc5ccc(-c6c(-c7ccccc7)c7c(c(-c8ccccc8)c6-c6ccccc6)C(=O)N(c6cccc(C#N)c6)C7=O)cc5)cc4)c(-c4ccccc4)c3-c3ccccc3)C2=O)c1
inactive: UACC-62 61.7 µM | RPMI-8226 > 100 µM | OVCAR-8 45.9 µM | CCRF-CEM > 100 µM | HT-29 > 100 µM | KM-20L2 > 100 µM | SK-MEL-28 > 100 µM | UO-31 91.8 µM | HCC 2998 > 100 µM | Malme-3M > 100 µM | HOP-92 3.92 µM | ACHN > 100 µM | HOP-62 89.3 µM

CC(C)=CCC/C(=C/CC/C(C)=C/CCc1ccoc1)C(=O)O
inactive: SK-OV-3 > 100 µM | UACC-62 > 100 µM | OVCAR-8 > 100 µM | CCRF-CEM > 100 µM | HT-29 > 100 µM | KM-20L2 > 100 µM | SK-MEL-28 > 100 µM | UO-31 > 100 µM | HCC 2998 > 100 µM | Malme-3M > 100 µM | HOP-92 > 100 µM | NCI-H226 73.5 µM | ACHN > 100 µM | HOP-62 > 100 µM

COc1ccc2oc(=N)c(C(N)=S)cc2c1
inactive: SK-OV-3 33.2 µM | UACC-62 16 µM | RPMI-8226 21.3 µM | OVCAR-8 18.2 µM | Hs-578T 23.2 µM | CCRF-CEM 20.5 µM | PC-3 27.5 µM | HT-29 32 µM | SK-MEL-28 30.4 µM | MCF7 27.7 µM | SR 20 µM | UO-31 19.6 µM | HCC 2998 17.3 µM | Malme-3M 14.1 µM | HOP-92 24 µM | NCI-H226 19.9 µM | NCI/ADR-RES 16.8 µM | ACHN 21.4 µM | HOP-62 31.8 µM

CC#CCCN(CC#N)Cc1ccccc1
inactive: SK-OV-3 > 100 µM | UACC-62 18.1 µM | RPMI-8226 > 100 µM | OVCAR-8 > 100 µM | Hs-578T > 100 µM | CCRF-CEM > 100 µM | PC-3 > 100 µM | HT-29 > 100 µM | SK-MEL-28 > 100 µM | MCF7 20.1 µM | SR > 100 µM | UO-31 > 100 µM | HCC 2998 > 100 µM | Malme-3M > 100 µM | HOP-92 > 100 µM | NCI-H226 > 100 µM | NCI/ADR-RES > 100 µM | ACHN 21.3 µM | HOP-62 > 100 µM

CC(CCC(=O)O)C(=O)O (stereo not drawn)
inactive: SK-OV-3 > 100 µM | UACC-62 > 100 µM | RPMI-8226 > 100 µM | OVCAR-8 > 100 µM | Hs-578T > 100 µM | CCRF-CEM > 100 µM | PC-3 > 100 µM | HT-29 > 100 µM | SK-MEL-28 > 100 µM | MCF7 > 100 µM | SR > 100 µM | UO-31 > 100 µM | HCC 2998 > 100 µM | Malme-3M > 100 µM | HOP-92 > 100 µM | NCI-H226 > 100 µM | NCI/ADR-RES > 100 µM | ACHN > 100 µM | HOP-62 > 100 µM

NCCNCCCNC(=O)c1cc(-c2ccccc2)nc2ccccc12
inactive: SK-OV-3 65 µM | UACC-62 19.9 µM | RPMI-8226 54 µM | OVCAR-8 85.5 µM | Hs-578T 48.3 µM | CCRF-CEM 21 µM | PC-3 51.3 µM | HT-29 36.2 µM | SK-MEL-28 16.7 µM | MCF7 45.4 µM | SR 28.3 µM | UO-31 46 µM | HCC 2998 19.6 µM | Malme-3M 16.8 µM | HOP-92 13.7 µM | NCI-H226 > 100 µM | NCI/ADR-RES > 100 µM | ACHN 38.1 µM | HOP-62 27.2 µM

C1CSCCCSCCCSCCCSCCCSC1
inactive: SK-OV-3 34.4 µM | UACC-62 44.6 µM | RPMI-8226 5.32 µM | OVCAR-8 29 µM | Hs-578T 44.8 µM | CCRF-CEM 8.55 µM | PC-3 19 µM | HT-29 22.9 µM | SK-MEL-28 > 100 µM | MCF7 24.5 µM | SR 11.4 µM | UO-31 26.8 µM | HCC 2998 38 µM | Malme-3M 33.3 µM | HOP-92 24.1 µM | NCI-H226 25.5 µM | NCI/ADR-RES 14.9 µM | ACHN 29.2 µM | HOP-62 47.4 µM

[O-][n+]1cc(SCc2ccccc2)ncc1SCc1ccccc1
inactive: SK-OV-3 > 10 µM | UACC-62 > 10 µM | RPMI-8226 > 10 µM | OVCAR-8 > 10 µM | Hs-578T > 10 µM | CCRF-CEM > 10 µM | PC-3 > 10 µM | HT-29 > 10 µM | SK-MEL-28 > 10 µM | MCF7 > 10 µM | SR > 10 µM | UO-31 > 10 µM | HCC 2998 > 10 µM | Malme-3M > 10 µM | HOP-92 > 10 µM | NCI-H226 > 10 µM | NCI/ADR-RES > 10 µM | ACHN > 10 µM | HOP-62 > 10 µM

O=C(O)c1ccccc1/C=N/N=C1NCCCCN1
inactive: SK-OV-3 > 100 µM | UACC-62 > 100 µM | RPMI-8226 > 100 µM | OVCAR-8 > 100 µM | Hs-578T > 100 µM | CCRF-CEM > 100 µM | PC-3 > 100 µM | HT-29 > 100 µM | SK-MEL-28 > 100 µM | MCF7 > 100 µM | SR > 100 µM | UO-31 > 100 µM | HCC 2998 > 100 µM | Malme-3M > 100 µM | HOP-92 > 100 µM | NCI-H226 > 100 µM | NCI/ADR-RES > 100 µM | ACHN > 100 µM | HOP-62 > 100 µM

COc1ccc(C(OCC2OC(n3cc(C)c(=O)[nH]c3=O)CC2n2cc(Cn3cc(I)c(=O)[nH]c3=O)nn2)(c2ccccc2)c2ccccc2)cc1 (stereo not drawn)
inactive: SK-OV-3 > 100 µM | UACC-62 > 100 µM | RPMI-8226 15.2 µM | OVCAR-8 > 100 µM | Hs-578T 44.8 µM | CCRF-CEM 11.2 µM | PC-3 > 100 µM | HT-29 > 100 µM | SK-MEL-28 > 100 µM | MCF7 > 100 µM | SR > 100 µM | UO-31 > 100 µM | HCC 2998 > 100 µM | Malme-3M > 100 µM | HOP-92 > 100 µM | NCI-H226 > 100 µM | NCI/ADR-RES > 100 µM | ACHN > 100 µM | HOP-62 > 100 µM

CCC12CN(C(=O)OC)C3C(Br)C1CCC(=O)C32 (stereo not drawn)
inactive: SK-OV-3 > 100 µM | UACC-62 > 100 µM | RPMI-8226 > 100 µM | OVCAR-8 > 100 µM | Hs-578T > 100 µM | CCRF-CEM > 100 µM | PC-3 > 100 µM | HT-29 > 100 µM | SK-MEL-28 > 100 µM | MCF7 > 100 µM | SR > 100 µM | UO-31 > 100 µM | HCC 2998 > 100 µM | Malme-3M > 100 µM | HOP-92 > 100 µM | NCI-H226 > 100 µM | NCI/ADR-RES > 100 µM | ACHN > 100 µM | HOP-62 > 100 µM

Cc1cc(Nc2ccc(S(=O)(=O)O)cc2)c2ccccc2n1
inactive: SK-OV-3 > 100 µM | UACC-62 > 100 µM | RPMI-8226 > 100 µM | OVCAR-8 > 100 µM | Hs-578T > 100 µM | CCRF-CEM > 100 µM | PC-3 > 100 µM | HT-29 > 100 µM | SK-MEL-28 > 100 µM | MCF7 > 100 µM | SR > 100 µM | UO-31 > 100 µM | HCC 2998 > 100 µM | Malme-3M > 100 µM | HOP-92 > 100 µM | NCI-H226 > 100 µM | NCI/ADR-RES > 100 µM | ACHN > 100 µM | HOP-62 40.9 µM

O=C(CNc1ccccc1[N+](=O)[O-])Nn1c(-c2ccccc2)nc2ccccc2c1=O
inactive: SK-OV-3 30.7 µM | UACC-62 10.7 µM | RPMI-8226 20.9 µM | OVCAR-8 33.8 µM | Hs-578T 27.4 µM | CCRF-CEM 15.8 µM | PC-3 22.2 µM | HT-29 17.5 µM | SK-MEL-28 23.5 µM | MCF7 19.1 µM | SR 18.2 µM | UO-31 18.7 µM | HCC 2998 13.5 µM | Malme-3M 23.9 µM | HOP-92 12.4 µM | NCI-H226 29.2 µM | NCI/ADR-RES 25.7 µM | ACHN 22.2 µM | HOP-62 20.1 µM

C[C@]12Cc3cnc(-c4ccccc4)nc3C[C@@H]1CC[C@@H]1[C@@H]2CC[C@@]2(C)[C@H]1CC[C@]2(C)O
inactive: SK-OV-3 18 µM | UACC-62 11.2 µM | RPMI-8226 5.06 µM | OVCAR-8 14.4 µM | Hs-578T 17.4 µM | CCRF-CEM 13.9 µM | PC-3 13.9 µM | HT-29 4.15 µM | SK-MEL-28 18.6 µM | MCF7 19.3 µM | SR 6.59 µM | UO-31 3.03 µM | HCC 2998 14.2 µM | Malme-3M 18.9 µM | HOP-92 22.8 µM | NCI-H226 26.1 µM | NCI/ADR-RES 15.4 µM | ACHN 14.2 µM | HOP-62 13.6 µM
